System: cartilage degradation (proteoglycan content in the synovial fluid)
Test: Acute Cartilage Degradation Rat Model
Assay type: in vivo
Details: rats, after compound administration
From the text: An in vivo model of acute cartilage degradation in rats has been characterized as a method to determine the proteoglycan content in the synovial fluid after the induction of cartilage degradation.

COc1ccc2c(c1)c(CC(=O)O)c(C)n2C(=O)c1ccc(Cl)cc1 [Indomethacin]
inhibition of cartilage degradation, as measured by increased proteoglycan content in the synovial fluid: inactive
